System: chinchilla model of acute noise-induced hearing loss
Test: chinchilla model of acute noise-induced hearing loss, auditory brainstem response thresholds
Assay type: in vivo
Settings: 60 mg/kg intraperitoneal, doses 12 hours apart, five pre- and five post-noise, 105 dB SPL noise centered at 4 kHz for 6 hours, 21 days after noise exposure, 2, 4, 6, 8 kHz, p<0.01
Source text: The otoprotective efficacy (i.e. the ability to prevent or reduce the development of permanent acute noise-induced hearing loss) of an exemplary Kv3 modulator, Example 64 described within WO2011069951A1 ((5R)-5-ethyl-5-methyl-3-[2-({4-methyl-3-[(trifluoromethyl)oxy]phenyl}oxy)-5-pyrimidinyl]-2,4-imidazolidinedione), referred to herein as “COMPOUND X”, was investigated using a chinchilla model of acute noise-induced hearing loss, as follows:
Subjects comprised male, 3 year old chinchillas (Laniger), 10 animals per group. Chinchillas were housed in the study facility for a minimum of 5 days prior to noise exposure. Food and water were available ad libitum. Animals were maintained at 21° C. on a 12/12 light/dark cycle. […]
Auditory brainstem responses (ABRs) were collected prior to noise exposure and 21 days after noise exposure. […] Thresholds were measured in response to tone-bursts with 1 ms rise/fall and a 0 ms plateau gated by a Blackman envelope and centred at the frequencies of 2, 4, 6 and 8 kHz, presented at 30/s. […]
The thresholds for ABRs at the four different sound frequencies at day 21 post-noise exposure were compared to the thresholds at baseline, prior to noise exposure in order to determine a threshold shift for each animal. The data were then analysed using a 2-way ANOVA, with treatment and frequency as main factors.

CC[C@@]1(C)NC(=O)N(c2cnc(Oc3ccc(C)c(OC(F)(F)F)c3)nc2)C1=O [COMPOUND X, (5R)-5-ethyl-5-methyl-3-[2-({4-methyl-3-[(trifluoromethyl)oxy]phenyl}oxy)-5-pyrimidinyl]-2,4-imidazolidinedione]
permanent threshold shift in ABRs: significantly reduced

Reference: patent publication US9669030B2, “Hydantoin derivatives as Kv3 inhibitors” (AUTIFONY THERAPEUTICS LIMITED, priority 2012, dated 2017)
